The results in this text go back to patent publication US12510533B2, “Methods for treating multiple myeloma and the use of companion biomarkers for 4-(4-(4-(((2-(2,6-dioxopiperidin-3-yl)-1-oxoisoindolin-4-yl)oxy)methyl)benzyl)piperazin-1-yl)-3-fluorobenzonitrile” (Celgene Corporation, priority 2018, dated 2025).

For experiment [1], the system named is multiple myeloma cell lines with acquired resistance. Kind of experiment: Proliferation (CellTiter-Glo, 5 days) of parental and lenalidomide- or pomalidomide-resistant MM cell lines. Format: cell-based, human. The method, then:
Cell lines were treated with (FIG. 11A) Pomalidomide, or (FIG. 11B) Compound 2 for 5 days and IC50 values were assessed using an ATP determination assay (CellTiter-Glo). Percent control was calculated by subtracting the background and normalizing to the DMSO control (100% of control).
Cells were treated for 5 days and then assessed using an ATP determination assay (CellTiter-Glo). The percentage of control was calculated by subtracting the background and normalizing to the DMSO control (100% of control).
Proliferation was assessed using the CellTitre-Glo® assay.
For orientation: ATP-based viability assays read luminescence as a measure of living cells.

Another experiment deals with K562 cells. Kind of experiment: Killing of untreated K562 cells by IL-2-activated PBMCs treated with compound (co-culture, Annexin V/PI). Format: cell-based. The following applies: Homo sapiens, IL-2-activated PBMCs treated 72 hours, read-out: IC50, direct K562 cell killing by treated PBMCs. The method, then:
Freshly isolated human PBMCs were cultured with recombinant IL-2 at concentration of 20 units/mL for 72 hours. Peripheral blood mononuclear cells were then spun down and re-suspended in fresh RPMI complete medium to 2×10^6 cells/mL. Cells were then treated with DMSO or Compound 2 at the indicated concentrations and incubated for an additional 72 hours. The PBMCs were then washed twice in fresh RPMI complete medium prior to coculture. K562 cells were re-suspended to a cell density of 1×10^6 cells/mL and stained with 1 μM CellTrace CFSE according to manufacturer's instructions. The labeled K562 cells were then seeded into a 96-well round bottom plate at 1×10^5 cells/well. […] Specific target cell lysis by PBMC mediated apoptosis was measured using Annexin V-fluorescein isothiocyanate (FITC) and propidium iodide (PI) according to manufacturer's instructions and samples were run on the FACS Array scan. […] All myeloma cell lines were kept in log phase, and cell density and viability were monitored by trypan blue exclusion using the Vi-CELL XR cell viability analyzer. […] Frozen PBMC donors, were thawed at 37° C. for 2 minutes in RPMI medium with 10% FBS and cell counts and viability were measured on the Vi-CELL® (Beckman Coulter). […] Peripheral blood mononuclear cells were counted and added to the MM cells at a target:effector (T:E) ratio of 1:5. […]

A further experiment relates to NCI-H929 cells. Kind of experiment: PBMC-induced MM cell lysis, PBMCs and MM cells both pretreated, versus single MM culture (NCI-H929). Format: cell-based, human. The following applies: PBMCs and MM cells both preincubated 72 hours. The method, then:
Ninety-six-well dishes were pre-coated with anti-CD3 antibody (OKT3, 3 μg/mL) and incubated at 4° C. overnight before the start of the experiment. Frozen PBMC donor cells were thawed at 37° C. for 2 minutes in RPMI medium with 10% FBS and cell counts and viability were measured on the Vi-CELL analyzer. Peripheral blood mononuclear cells were washed and diluted to 1×10^6 cells/mL and dispensed into the compound-treated plates in a total volume of 200 μL. Cells were incubated with Compound 2 for 2 hours before being transferred onto anti-CD3-coated plates and incubated for an additional 72 hours. At the same time, MM cell lines (NCI-H929, H929-1051, OPM2, OPM2-P10) were diluted to a final concentration of 0.1×10^6 cells/mL and labeled with CellTrace CFSE according to manufacturer's instructions. Multiple myeloma cell lines were then dispensed into compound-treated plates at a total volume of 200 μL and incubated for 72 hours. After 72 hours, the PBMCs and MM cells were counted and transferred into a U-bottom 96-well plate at a final T:E ratio of 1:5. After 24 hours coculture, specific target cell lysis by PBMC mediated apoptosis was measured using Annexin V-AF647 and 7-AAD according to manufacturer's instructions and samples were run on the Attune NxT Cytometer. […]

What is called IC50 is the concentration needed to halve the response being measured. As to `N#Cc1ccc(N2CCN(Cc3ccc(COc4cccc5c4CN([C@H]4CCC(=O)NC4=O)C5=O)cc3)CC2)c(F)c1` [Compound 2, (S)-4-(4-(4-(((2-(2,6-dioxopiperidin-3-yl)-1-oxoisoindolin-4-yl)oxy)methyl)benzyl)piperazin-1-yl)-3-fluorobenzonitrile], the “sensitivity of cell lines with acquired resistance and low CRBN” value in experiment [1] was “sensitive”. Moreover, the anti-proliferative activity result in experiment [1] (DF15R cell line, lacks CRBN expression) is listed as “little anti-proliferative activity”. Further, the IC50 in the experiment with K562 cells was 5.9 pM. Besides, the “enhancement of killing, IC50 of single MM culture versus immune and tumor cell co-culture” value with NCI-H929 cells is on record as approximately 7000 fold.
